Measured values: patent US11744840B2, “N-palmitoyl-D-glucosamine in a micronized form” (Innovet Italia S.R.L., priority 2018, dated 2023)

Experiments:
[1] = test system: carrageenan edema in the rat's paw; assay: carrageenan edema in the rat's paw, physical forms of PGA and Curcumin; format: in vivo; conditions: for edema as a percentage of the edema produced only by carrageenan (value of 100) / pharmacological effect on carrageenan edema (in words): rat; for edema as a percentage of the edema produced only by carrageenan (value of 100): PGA 30, PGA-m 20, CUR-m 10, PGACUR-m 30, PGA-sm 20 mg/kg; for pharmacological effect on carrageenan edema (in words): PGA 30, PGA-m 20, PGA-sm 20, CUR 10, PGACUR-m 30 mg/kg
Experimental: The experimental model of carrageenan edema was used in the rat's paw, which determines epithelial dysfunction at the paw level.
The experimental model of carrageenan edema in the paw was induced by sub-plantar injection of a carrageenan solution (containing 50 μl of sterile saline containing 1% carrageenan) into the right paw of the animal (rat).
At specific time intervals the plantar volume was measured by a plethysmometer (Ugo Basile, Milan, Italy). The increase in plantar volume was evaluated as the difference between the value obtained in the specific time intervals and the volume at baseline (time 0) measured immediately before the administration of carrageenan.
The following physical forms of N-palmitoyl-D-glucosamine were tested: • Non-micronized N-palmitoyl-D-glucosamine (PGA); • Micronized N-palmitoyl-D-glucosamine (PGA-m); • N-palmitoyl-D-glucosamine co-micronized with Curcumin (PGACUR-m); • N-palmitoyl-D-glucosamine in a sub-micron form (PGA-sm).
The following physical form of Curcumin was also tested: • Micronized Curcumin (CUR-m)
In all cases PGA was tested as a PGA/fatty acid mixture.
The thus obtained results, expressed as a percentage of the edema produced only by carrageenan (indicated with a value of 100), are as follows: […]

[2] = test system: carrageenan edema in the rat's paw; assay: carrageenan edema in the rat's paw, PGA with or without Polydatin; format: in vivo; conditions: Wistar rat, doses per group b126-b129, unit assumed
Experimental: Also in this case, the experimental model of carrageenan edema in the rat's paw was used, which determines epithelial dysfunction at the paw level.
The edema was induced by the sub-plantar injection of 50 μl of an aqueous 1% carrageenan solution. At time intervals (30 min, 1 h, 2 h, 3 h, 4 h, 5 h, 6 h) the volume of the injected paw was evaluated by means of a plethysmometer (Ugo Basile, Milan—Italy). The following physical forms of N-palmitoyl-D-glucosamine with or without Polydatin were tested in groups of 10 animals (Wistar strain weighing between 130 and 160 g) for each group, in the dosages indicated in brackets:
Group B) Carrageenan+micronized Palmitoylglucosamine (10 mg/kg)
Group C) Carrageenan+micronized Polydatin (1 mg/kg)
Group D) Carrageenan+Palmitoylglucosamine (10 mg/kg)+Polydatin (1 mg/kg) [mixed]
Group E) Carrageenan+Palmitoylglucosamine and co-micronized Polydatin [10:1] (11 mg/kg)

Compound	edema as a percentage of the edema produced only by carrageenan (value of 100) ([1]; 30 min) [%]	edema as a percentage of the edema produced only by carrageenan (value of 100) ([1]; 1 hr) [%]	edema as a percentage of the edema produced only by carrageenan (value of 100) ([1]; 2 hr) [%]	edema as a percentage of the edema produced only by carrageenan (value of 100) ([1]; 3 hr) [%]	edema as a percentage of the edema produced only by carrageenan (value of 100) ([1]; 4 hr) [%]	edema as a percentage of the edema produced only by carrageenan (value of 100) ([1]; 5 hr) [%]	pharmacological effect on carrageenan edema (in words) [1]	Paw volume ([2]; 30 min from treatment) [mL]	Paw volume ([2]; 1 h from treatment) [mL]	Paw volume ([2]; 2 h from treatment) [mL]	Paw volume ([2]; 3 h from treatment) [mL]	Paw volume ([2]; 4 h from treatment) [mL]	Paw volume ([2]; 5 h from treatment) [mL]	Paw volume ([2]; 6 h from treatment) [mL]	other results
CCCCCCCCCCCCCCCC(=O)N[C@H]1C(O)O[C@H](CO)[C@@H](O)[C@@H]1O (stereo partly drawn) [PGA-sm, N-palmitoyl-D-glucosamine]	100.0	100.0	98.0	97.0	98.0	98.0	no significant pharmacological effect	–	–	–	–	–	–	–	pharmacological effect on carrageenan edema (in words) ([1]; listed as sub-micron PGA): markedly pejorative activity compared to the micronized PGA; pharmacological effect on carrageenan edema (in words) ([1]; listed as sub-micronized PGA): almost total inactivity
COc1cc(/C=C/C(=O)CC(=O)/C=C/c2ccc(O)c(OC)c2)ccc1O [CUR-m, Curcumin, reference compound]	100.3	95.4	95.1	94.8	96.2	97.4	–	–	–	–	–	–	–	–	pharmacological effect on carrageenan edema (in words) ([1]; listed as micronized CUR): no significant pharmacological effect; pharmacological effect on carrageenan edema (in words) ([1]; listed as micronized Curcumin): almost total inactivity
OC[C@H]1O[C@@H](Oc2cc(O)cc(/C=C/c3ccc(O)cc3)c2)[C@H](O)[C@@H](O)[C@@H]1O [Group C), Polydatin, reference compound]	–	–	–	–	–	–	–	0.21	0.32	0.69	1.03	1.19	1.28	0.95	–
CCCCCCCCCCCCCCCC(=O)N[C@H]1C(O)O[C@H](CO)[C@@H](O)[C@@H]1O (stereo partly drawn) [PGA, N-palmitoyl-D-glucosamine]	100.0	100.0	100.0	100.0	100.0	100.0	–	–	–	–	–	–	–	–	melting point: 202 °C (dec.); pharmacological effect on carrageenan edema (in words) ([1]; listed as PGA (non-micronized)): no pharmacological effect; pharmacological effect on carrageenan edema (in words) ([1]; listed as non-micronized PGA): total inactivity
CCCCCCCCCCCCCCCC(=O)N[C@H]1C(O)O[C@H](CO)[C@@H](O)[C@@H]1O (stereo partly drawn) [PGA-m, N-palmitoyl-D-glucosamine]	100.0	92.2	80.1	71.5	70.4	75.5	apparent pharmacological effect	0.23	0.33	0.81	1	1.21	1.33	1.05	reduction of the Carrageenan edema ([1]; PGA-m 20 mg/Kg, co-micronized PGA-m 20 mg/Kg + CUR 10 mg/kg, corresponds to the 5 hr values of Table 1): 24.5%
